Experiment [1] has as its target KDR (phospho-KDR, VEGF165-stimulated HUVEC cells) (Homo sapiens (Human), UniProt P35968). As to the kind of experiment: KDR autophosphorylation ELISA in HUVEC cells (Example G). In kind it is cell-based. Particulars: cellular activity; KDR autophosphorylation ELISA in HUVEC cells. Summed up:
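HUVEC cells, serum-starved 24 h, were treated 1 h with an 8-point compound dilution (0.3% DMSO) and then stimulated with 100 ng/mL VEGF165 for 5 min. Phospho-KDR in lysates was quantified by sandwich ELISA against a phospho-KDR standard. IC50 from a 4-parameter logistic fit, normalised between stimulated DMSO and unstimulated controls.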

Experiment [2] addresses Human MET (residues 956-1390) (Homo sapiens (Human), UniProt P08581). As to the kind of experiment: Human Met kinase assay, HTRF KinEase (Example D-2). In kind it is biochemical. The conditions noted are these: protocol of Example D-2; read-out: c-Met IC50. Put shortly:
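MET kinase domain (956-1390), 0.1 ng/well, in buffer with 5 mM MgCl2, 1 mM DTT and 1 mM MnCl2, phosphorylated a biotinylated peptide at ATP Km for 40 min at RT; 10 concentrations, 3% DMSO final. EDTA-stopped HTRF read after 60 min; IC50 from a 4-parameter logistic fit.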
In general terms: Time-resolved FRET reads energy transfer from a long-lived donor to a nearby acceptor.

Experiment [3] addresses Mer (phospho-Mer, MERTK-transfected 293A cells) (Homo sapiens (Human), UniProt Q12866). As to the kind of experiment: Mer autophosphorylation ELISA in transient transfected 293A cells (Example H). In kind it is cell-based. Particulars: cellular activity; Mer autophosphorylation ELISA in transient transfected 293A cells. Put shortly: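 293A cells transiently transfected with human MERTK were treated 1 h in serum-free medium with an 8-point compound dilution (0.3% DMSO final). Lysates were assayed by phospho-Mer sandwich ELISA against a phospho-Mer standard; IC50 came from a 4-parameter logistic fit, normalised to DMSO (100%) and reference-inhibitor (0%) controls.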
(In general: An ELISA detects its analyte on a solid surface through an enzyme-linked reagent.)

Experiment [4] deals with Human MER (residues 528-999) (Homo sapiens (Human), UniProt Q12866). Description: Human Mer kinase assay, HTRF KinEase (Example C-2). The experiment is classed as biochemical. The conditions noted are these: protocol of Example C-2. Summed up: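 Recombinant MER 528-999 (1 ng/well) in buffer with 5 mM MgCl2 and 1 mM DTT was reacted with biotinylated peptide and ATP at Km (40 μM) for 60 min at room temperature. EDTA stop with SA-XL665 and Eu3+ TK antibody, then 665/620 nm HTRF read; IC50 from 4-parameter fit.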

Broadly, the IC50 is the concentration that inhibits the measured activity by half.

KDR (phospho-KDR, VEGF165-stimulated HUVEC cells), sequence (P35968 20-1356): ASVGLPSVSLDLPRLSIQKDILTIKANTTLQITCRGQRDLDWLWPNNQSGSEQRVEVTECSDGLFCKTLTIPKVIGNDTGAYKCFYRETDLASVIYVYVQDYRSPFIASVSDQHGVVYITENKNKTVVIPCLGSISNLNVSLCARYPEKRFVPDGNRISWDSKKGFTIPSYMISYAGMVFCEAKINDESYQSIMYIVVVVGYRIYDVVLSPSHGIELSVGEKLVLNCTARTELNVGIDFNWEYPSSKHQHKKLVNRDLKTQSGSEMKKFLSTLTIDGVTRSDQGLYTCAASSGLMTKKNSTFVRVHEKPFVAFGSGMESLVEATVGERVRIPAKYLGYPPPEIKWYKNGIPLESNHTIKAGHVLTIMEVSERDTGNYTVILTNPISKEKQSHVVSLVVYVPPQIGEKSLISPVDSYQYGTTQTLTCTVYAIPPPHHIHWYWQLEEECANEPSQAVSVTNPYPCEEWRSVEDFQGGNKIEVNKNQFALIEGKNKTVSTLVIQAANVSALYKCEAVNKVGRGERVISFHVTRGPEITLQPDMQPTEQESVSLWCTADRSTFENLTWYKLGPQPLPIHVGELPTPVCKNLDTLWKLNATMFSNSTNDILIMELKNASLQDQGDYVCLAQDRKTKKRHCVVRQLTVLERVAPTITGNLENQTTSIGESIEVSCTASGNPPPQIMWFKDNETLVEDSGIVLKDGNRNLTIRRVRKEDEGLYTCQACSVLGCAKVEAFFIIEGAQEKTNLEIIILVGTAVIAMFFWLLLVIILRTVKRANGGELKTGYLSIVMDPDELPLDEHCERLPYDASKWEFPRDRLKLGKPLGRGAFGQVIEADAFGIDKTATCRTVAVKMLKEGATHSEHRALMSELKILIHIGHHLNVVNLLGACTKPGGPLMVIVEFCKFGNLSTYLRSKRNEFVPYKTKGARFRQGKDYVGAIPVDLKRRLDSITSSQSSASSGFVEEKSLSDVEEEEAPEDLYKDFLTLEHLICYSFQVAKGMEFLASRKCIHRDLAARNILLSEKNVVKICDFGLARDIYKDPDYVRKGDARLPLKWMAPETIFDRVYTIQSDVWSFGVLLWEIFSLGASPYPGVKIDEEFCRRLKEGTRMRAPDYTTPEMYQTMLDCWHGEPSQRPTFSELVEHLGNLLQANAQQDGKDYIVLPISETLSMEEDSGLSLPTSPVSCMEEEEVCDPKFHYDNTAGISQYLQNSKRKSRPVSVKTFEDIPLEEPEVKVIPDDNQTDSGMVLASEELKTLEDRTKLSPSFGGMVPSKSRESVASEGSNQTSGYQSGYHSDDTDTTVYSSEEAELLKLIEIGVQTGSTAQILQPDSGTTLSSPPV
Human MET (residues 956-1390), sequence (P08581 956-1390): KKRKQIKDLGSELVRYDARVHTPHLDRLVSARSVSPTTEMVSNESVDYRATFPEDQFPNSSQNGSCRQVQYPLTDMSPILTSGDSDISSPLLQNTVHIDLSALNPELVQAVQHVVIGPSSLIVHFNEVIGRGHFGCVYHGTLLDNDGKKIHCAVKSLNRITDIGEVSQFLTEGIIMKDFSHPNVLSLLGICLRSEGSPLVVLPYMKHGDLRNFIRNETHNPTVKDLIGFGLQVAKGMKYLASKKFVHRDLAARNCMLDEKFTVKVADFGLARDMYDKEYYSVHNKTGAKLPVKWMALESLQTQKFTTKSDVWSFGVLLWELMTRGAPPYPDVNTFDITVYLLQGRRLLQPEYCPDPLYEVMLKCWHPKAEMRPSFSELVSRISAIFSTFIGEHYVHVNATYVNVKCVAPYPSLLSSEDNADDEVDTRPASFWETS
Mer (phospho-Mer, MERTK-transfected 293A cells), sequence (Q12866 21-999): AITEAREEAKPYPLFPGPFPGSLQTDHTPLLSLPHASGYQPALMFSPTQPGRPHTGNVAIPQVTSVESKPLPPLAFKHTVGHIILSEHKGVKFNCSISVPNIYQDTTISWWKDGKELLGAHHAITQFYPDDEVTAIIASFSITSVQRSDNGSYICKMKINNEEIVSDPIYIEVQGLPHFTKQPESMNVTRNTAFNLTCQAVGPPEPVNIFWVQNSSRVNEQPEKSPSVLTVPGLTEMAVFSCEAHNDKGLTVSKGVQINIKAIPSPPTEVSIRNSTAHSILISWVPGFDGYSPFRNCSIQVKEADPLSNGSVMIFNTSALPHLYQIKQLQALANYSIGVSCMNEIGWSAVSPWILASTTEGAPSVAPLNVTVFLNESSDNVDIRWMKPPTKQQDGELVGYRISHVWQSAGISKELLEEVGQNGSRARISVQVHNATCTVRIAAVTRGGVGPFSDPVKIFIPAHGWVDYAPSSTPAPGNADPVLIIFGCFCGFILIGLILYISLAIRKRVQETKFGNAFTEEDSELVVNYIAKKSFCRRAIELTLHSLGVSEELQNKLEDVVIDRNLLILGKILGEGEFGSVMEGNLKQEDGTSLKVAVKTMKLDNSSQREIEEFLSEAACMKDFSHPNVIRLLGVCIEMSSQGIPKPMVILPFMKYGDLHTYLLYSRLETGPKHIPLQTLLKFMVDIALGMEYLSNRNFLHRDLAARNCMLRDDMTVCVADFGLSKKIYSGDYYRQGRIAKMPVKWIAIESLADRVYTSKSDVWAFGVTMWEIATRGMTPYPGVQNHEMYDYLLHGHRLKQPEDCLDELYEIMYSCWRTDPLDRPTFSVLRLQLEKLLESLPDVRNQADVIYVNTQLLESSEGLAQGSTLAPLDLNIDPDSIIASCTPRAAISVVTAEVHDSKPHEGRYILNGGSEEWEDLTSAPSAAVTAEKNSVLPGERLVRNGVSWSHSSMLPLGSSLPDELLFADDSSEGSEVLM
Human MER (residues 528-999), sequence (Q12866 528-999): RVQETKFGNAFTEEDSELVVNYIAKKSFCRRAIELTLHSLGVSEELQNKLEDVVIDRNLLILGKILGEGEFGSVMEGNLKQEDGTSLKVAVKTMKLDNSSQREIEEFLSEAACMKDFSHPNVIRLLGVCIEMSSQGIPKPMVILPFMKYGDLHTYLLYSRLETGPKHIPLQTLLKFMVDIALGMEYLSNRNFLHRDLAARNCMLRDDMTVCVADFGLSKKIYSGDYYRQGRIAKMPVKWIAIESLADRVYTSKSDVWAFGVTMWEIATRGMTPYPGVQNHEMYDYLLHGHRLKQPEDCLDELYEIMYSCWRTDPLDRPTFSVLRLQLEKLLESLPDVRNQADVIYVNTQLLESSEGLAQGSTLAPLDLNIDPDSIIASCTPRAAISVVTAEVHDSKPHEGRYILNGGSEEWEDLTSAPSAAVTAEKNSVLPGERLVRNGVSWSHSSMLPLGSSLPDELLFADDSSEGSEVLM

In the case of `C=C(C)c1cnc2c(Oc3ccc(NC(=O)c4c(C)cc(C)n(-c5ccc(F)cc5)c4=O)cc3F)ccnc2c1` [Compound 457, 1-(4-fluorophenyl)-N-[3-fluoro-4-[(7-prop-1-en-2-yl-1,5-naphthyridin-4-yl)oxy]phenyl]-4,6-dimethyl-2-oxopyridine-3-carboxamide], the IC50 in experiment [1], in experiment [2], in experiment [3] and in experiment [4] was less than 100 nM each time.

For `COc1nc2c(Oc3ccc(NC(=O)c4cnc(C)c(-c5ccc(F)cc5)c4O)cc3F)ccnc2cc1C` [Compound 458, N-[3-fluoro-4-[(6-methoxy-7-methyl-1,5-naphthyridin-4-yl)oxy]phenyl]-5-(4-fluorophenyl)-4-hydroxy-6-methylpyridine-3-carboxamide], the IC50 in experiment [1] was less than 100 nM; in experiment [2], 100 to 300 nM; in experiment [3], less than 100 nM; in experiment [4], less than 100 nM.

On to `COc1nc2c(Oc3ccc(NC(=O)c4c(C)nc(C)c(-c5ccc(F)cc5)c4O)cc3F)ccnc2cc1C` [Compound 459, N-[3-fluoro-4-[(6-methoxy-7-methyl-1,5-naphthyridin-4-yl)oxy]phenyl]-5-(4-fluorophenyl)-4-hydroxy-2,6-dimethylpyridine-3-carboxamide], for which the IC50 in experiment [1] is less than 100 nM; in experiment [2], 100 to 300 nM; in experiment [3], less than 100 nM; in experiment [4], less than 100 nM.

On to `COc1nc2c(Oc3ccc(NC(=O)c4cnc(C)c(-c5ccc(F)cc5C)c4O)cc3F)ccnc2cc1C` [Compound 460, N-[3-fluoro-4-[(6-methoxy-7-methyl-1,5-naphthyridin-4-yl)oxy]phenyl]-5-(4-fluoro-2-methylphenyl)-4-hydroxy-6-methylpyridine-3-carboxamide], for which the IC50 was less than 100 nM in experiment [1], 100 to 300 nM in experiment [2], less than 100 nM in experiment [3] and less than 100 nM in experiment [4].

In the case of `COc1cc2nccc(Oc3ccc(NC(=O)c4c(C)ncc(-c5ccc(F)cc5C)c4O)cc3F)c2nc1OC` [Compound 479, N-[4-[(6,7-dimethoxy-1,5-naphthyridin-4-yl)oxy]-3-fluorophenyl]-5-(4-fluoro-2-methylphenyl)-4-hydroxy-2-methylpyridine-3-carboxamide], the IC50 in experiment [1], in experiment [2], in experiment [3] and in experiment [4] was less than 100 nM throughout.

For the molecule `COc1ccc2nccc(Oc3ccc(NC(=O)c4c(C)ncc(-c5ccc(F)cc5C)c4O)cc3F)c2n1` [Compound 480, N-[3-fluoro-4-[(6-methoxy-1,5-naphthyridin-4-yl)oxy]phenyl]-5-(4-fluoro-2-methylphenyl)-4-hydroxy-2-methylpyridine-3-carboxamide], the IC50 in experiment [1] is less than 100 nM; in experiment [2], 100 to 300 nM; in experiment [3] it was less than 100 nM; in experiment [4], 100 to 300 nM.

`COc1cc2nccc(Oc3ccc(NC(=O)c4c(C)n(C)cc(-c5ccc(F)cc5C)c4=O)cc3F)c2nc1OC` [Compound 481, N-[4-[(6,7-dimethoxy-1,5-naphthyridin-4-yl)oxy]-3-fluorophenyl]-5-(4-fluoro-2-methylphenyl)-1,2-dimethyl-4-oxopyridine-3-carboxamide]: the IC50 in experiment [1], in experiment [2], in experiment [3] and in experiment [4] was less than 100 nM throughout.

In the case of `COCCOc1cc2nccc(Oc3ccc(NC(=O)c4c(COC)nc(C)c(-c5ccc(F)cc5)c4O)cc3F)c2nc1OC` [Compound 482, N-[3-fluoro-4-[[6-methoxy-7-(2-methoxyethoxy)-1,5-naphthyridin-4-yl]oxy]phenyl]-5-(4-fluorophenyl)-4-hydroxy-2-(methoxymethyl)-6-methylpyridine-3-carboxamide], the IC50 in experiment [1], in experiment [2], in experiment [3] and in experiment [4] was less than 100 nM each time.

`COc1ccc2nccc(Oc3ccc(NC(=O)c4c(C)n(C)cc(-c5ccc(F)cc5C)c4=O)cc3F)c2n1` [Compound 483, N-[3-fluoro-4-[(6-methoxy-1,5-naphthyridin-4-yl)oxy]phenyl]-5-(4-fluoro-2-methylphenyl)-1,2-dimethyl-4-oxopyridine-3-carboxamide]: the IC50 in experiment [1] was greater than 300 nM; in experiment [2], greater than 300 nM; in experiment [3], less than 100 nM; in experiment [4] it was 100 to 300 nM.

Regarding `COc1cc2c(Oc3ccc(NC(=O)c4ccc(C)n(-c5ccc(F)cc5)c4=O)cc3F)ccnc2cn1` [Compound 494, N-[3-fluoro-4-[(6-methoxy-1,7-naphthyridin-4-yl)oxy]phenyl]-1-(4-fluorophenyl)-6-methyl-2-oxopyridine-3-carboxamide], the IC50 in experiment [1], in experiment [2], in experiment [3] and in experiment [4] was less than 100 nM each time.

On to `COc1cc2nccc(Oc3ccc(NC(=O)c4cn(C)cc(-c5ccc(F)cc5C)c4=O)cc3F)c2nc1OC` [Compound 503, N-[4-[(6,7-dimethoxy-1,5-naphthyridin-4-yl)oxy]-3-fluorophenyl]-5-(4-fluoro-2-methylphenyl)-1-methyl-4-oxopyridine-3-carboxamide], for which the IC50 in experiment [1], in experiment [2], in experiment [3] and in experiment [4] was less than 100 nM in each case.

Consider `CCc1ncc(C(=O)Nc2ccc(Oc3ccnc4cc(OC)c(OC)nc34)c(F)c2)c(O)c1-c1ccc(F)cc1` [Compound 504, N-[4-[(6,7-dimethoxy-1,5-naphthyridin-4-yl)oxy]-3-fluorophenyl]-6-ethyl-5-(4-fluorophenyl)-4-hydroxypyridine-3-carboxamide], for which the IC50 in experiment [1], in experiment [2], in experiment [3] and in experiment [4] was less than 100 nM in each case.

Consider `Cc1cc(F)ccc1-c1c(C)nc(C)c(C(=O)Nc2ccc(Oc3ccnc4cccnc34)c(F)c2)c1O` [Compound 505, 5-(4-fluoro-2-methylphenyl)-N-[3-fluoro-4-(1,5-naphthyridin-4-yloxy)phenyl]-4-hydroxy-2,6-dimethylpyridine-3-carboxamide], for which the IC50 is less than 100 nM in experiment [1], less than 100 nM in experiment [2], 100 to 300 nM in experiment [3] and 100 to 300 nM in experiment [4].

Take `Cc1ccc2nccc(Oc3ccc(NC(=O)c4c(C)nc(C)c(-c5ccc(F)cc5C)c4O)cc3F)c2n1` [Compound 506, N-[3-fluoro-4-[(6-methyl-1,5-naphthyridin-4-yl)oxy]phenyl]-5-(4-fluoro-2-methylphenyl)-4-hydroxy-2,6-dimethylpyridine-3-carboxamide]: the IC50 in experiment [1], in experiment [2], in experiment [3] and in experiment [4] was less than 100 nM each time.

For the molecule `COc1cnc2c(Oc3ccc(NC(=O)c4c(C)n(C)c(C)c(-c5ccc(F)cc5)c4=O)cc3F)ccnc2c1` [Compound 508, N-[3-fluoro-4-[(7-methoxy-1,5-naphthyridin-4-yl)oxy]phenyl]-5-(4-fluorophenyl)-1,2,6-trimethyl-4-oxopyridine-3-carboxamide], the IC50 in experiment [1] was greater than 300 nM; in experiment [2], less than 100 nM; in experiment [3], less than 100 nM; in experiment [4], less than 100 nM.

In the case of `CCc1nc(C)c(-c2ccc(F)cc2)c(O)c1C(=O)Nc1ccc(Oc2ccnc3ccc(OC)nc23)cc1` [Compound 509, 2-ethyl-5-(4-fluorophenyl)-4-hydroxy-N-[4-[(6-methoxy-1,5-naphthyridin-4-yl)oxy]phenyl]-6-methylpyridine-3-carboxamide], the IC50 in experiment [1], in experiment [2], in experiment [3] and in experiment [4] was less than 100 nM throughout.

With `COCc1nc(C)c(-c2ccc(F)cc2)c(O)c1C(=O)Nc1ccc(Oc2ccnc3ccc(OC)nc23)cc1` [Compound 510, 5-(4-fluorophenyl)-4-hydroxy-2-(methoxymethyl)-N-[4-[(6-methoxy-1,5-naphthyridin-4-yl)oxy]phenyl]-6-methylpyridine-3-carboxamide], the IC50 in experiment [1], in experiment [2], in experiment [3] and in experiment [4] was less than 100 nM throughout.

Turning to `COc1cc2nccc(Oc3ccc(NC(=O)c4c(C)n(C)c(C)c(-c5ccc(F)cc5)c4=O)cc3F)c2nc1OC` [Compound 511, N-[4-[(6,7-dimethoxy-1,5-naphthyridin-4-yl)oxy]-3-fluorophenyl]-5-(4-fluorophenyl)-1,2,6-trimethyl-4-oxopyridine-3-carboxamide], the IC50 was 100 to 300 nM in experiment [1], less than 100 nM in experiment [2], less than 100 nM in experiment [3] and less than 100 nM in experiment [4].

Source of the values: US12371428B2 (Exelixis, Inc., priority 2019, dated 2025).
